In publication PMC8050276, “Estradiol analogs attenuate autophagy, cell migration and invasion by direct and selective inhibition of TRPML1, independent of estrogen receptors” (Scientific Reports, 2021):

How the values were obtained:
Format in all cases: cell-based
TRPML1 = target: T1, TRPML1 (Mus musculus, UniProt Q99J21); assay: Endolysosomal patch-clamp, murine alveolar macrophages endogenously expressing TRPML1; conditions: EDME 10 µM, ML-SA1 10 µM
T1 construct: TRPML1 endogenously expressed in mouse alveolar macrophages; endogenous in cells; host or cells: primary murine alveolar macrophages
T1 sequence (Q99J21 whole entry): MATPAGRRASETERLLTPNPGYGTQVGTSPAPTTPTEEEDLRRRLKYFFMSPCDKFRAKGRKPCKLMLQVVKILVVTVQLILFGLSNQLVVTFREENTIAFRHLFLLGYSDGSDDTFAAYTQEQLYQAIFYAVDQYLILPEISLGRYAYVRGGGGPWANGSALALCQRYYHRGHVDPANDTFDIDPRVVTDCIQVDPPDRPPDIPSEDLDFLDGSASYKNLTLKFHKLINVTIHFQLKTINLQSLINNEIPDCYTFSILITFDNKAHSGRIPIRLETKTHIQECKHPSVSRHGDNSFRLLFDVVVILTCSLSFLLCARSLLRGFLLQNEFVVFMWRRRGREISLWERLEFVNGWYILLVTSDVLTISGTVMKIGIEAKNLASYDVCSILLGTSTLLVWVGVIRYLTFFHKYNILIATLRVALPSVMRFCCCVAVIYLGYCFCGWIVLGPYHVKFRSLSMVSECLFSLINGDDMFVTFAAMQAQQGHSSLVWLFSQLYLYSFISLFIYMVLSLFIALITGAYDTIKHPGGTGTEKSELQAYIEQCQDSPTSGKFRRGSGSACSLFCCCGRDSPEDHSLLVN
Experimental: For whole-LE/LY manual patch-clamp recordings, cells were treated with 1 μM vacuolin-1 (> 2 h) at 37 °C and 5% CO2 and experiments performed as described previously[19],[25]. Compound was washed out before patch-clamp experimentation. Currents were recorded using an EPC-10 patch-clamp amplifier (HEKA, Lambrecht, Germany) and PatchMaster acquisition software (https://www.heka.com/). Data were digitized at 40 kHz and filtered at 2.8 kHz. Fast and slow capacitive transients were cancelled by the compensation circuit of the EPC-10 amplifier. All recordings were obtained at room temperature and were analyzed using PatchMaster acquisition software (https://www.heka.com/) and OriginPro 6.1 (https://www.originlab.com/). […] For all experiments, salt-agar bridges were used to connect the reference Ag–AgCl wire to the bath solution to minimize voltage offsets. Liquid junction potential was corrected. For the application of the small molecule inhibitors/flavonoids, cytoplasmic solution was completely exchanged by cytoplasmic solution containing compound. The current amplitudes at − 100 mV were extracted from individual ramp current recordings. Unless otherwise stated, cytoplasmic solution contained 140 mM K-MSA, 5 mM KOH, 4 mM NaCl, 0.39 mM CaCl2, 1 mM EGTA and 10 mM HEPES (pH was adjusted with KOH to 7.2). […]

[1] = target: T2, hTRPML1L15/16A, L577/578A (Homo sapiens, UniProt Q9GZU1, L15A/L16A); assay: Whole-cell patch-clamp, tetracycline-inducible HEK293 hTRPML1L15/16A, L577/578A; conditions: 30 µM ML-SA1, pH 4.6; read-out: TRPML1 IC50, whole-cell patch-clamp
T2 construct: host or cells: HEK293, FLP-in-Tet-On, tetracycline-induced
T2 sequence (Q9GZU1 with tags, fused parts or gaps L15A/L16A): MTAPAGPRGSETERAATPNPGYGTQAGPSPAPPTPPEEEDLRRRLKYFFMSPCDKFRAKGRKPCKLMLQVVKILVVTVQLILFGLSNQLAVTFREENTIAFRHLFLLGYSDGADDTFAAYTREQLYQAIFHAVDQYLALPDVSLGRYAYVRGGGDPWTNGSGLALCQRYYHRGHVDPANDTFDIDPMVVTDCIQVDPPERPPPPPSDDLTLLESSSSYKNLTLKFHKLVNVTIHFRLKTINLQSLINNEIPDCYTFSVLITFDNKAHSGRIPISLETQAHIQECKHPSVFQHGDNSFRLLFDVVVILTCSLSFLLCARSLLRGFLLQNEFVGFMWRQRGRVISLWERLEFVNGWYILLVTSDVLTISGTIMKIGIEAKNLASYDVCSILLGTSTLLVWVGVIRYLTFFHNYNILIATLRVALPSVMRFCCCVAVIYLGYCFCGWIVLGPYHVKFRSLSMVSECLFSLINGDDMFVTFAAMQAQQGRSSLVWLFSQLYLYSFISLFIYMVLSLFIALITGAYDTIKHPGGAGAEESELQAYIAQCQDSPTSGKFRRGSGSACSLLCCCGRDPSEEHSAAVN
Experimental: For whole-cell patch-clamp experiments tetracycline-inducible hTRPML1L15/16A, L577/578A, hTRPML2 and TRPML3 HEK293 cell lines were used, generated by ICAGEN Inc. using the FLP-in-Tet-On system. Experiments were performed as described previously[20],[42]. In brief, cells were cultured on coverslips (Fisherbrand, Fisher Scientific) in complete DMEM medium with 10% FBS (Thermo Fisher). HEK293 cells expressing the desired channel protein were patch-clamped after overnight induction with tetracycline (1 µg/mL). […] The pipette solution contained (mM) 122 Cs‐methanosulfonate, 4 NaCl, 10 EGTA, 2 Na-ATP, 2 MgCl2 and 20 HEPES, pH 7.2 (with CsOH). The standard bath solution contained (mM) 153 NaCl, 5 KCl, 2 CaCl2, 1 MgCl2, 20 HEPES and 10 Glucose (pH 7.4 with NaOH). The low pH bath solution contained (mM) 150 Na-Gluconate, 5 KCl, 2 CaCl2, 1 MgCl2, 10 glucose, 10 HEPES and 10 MES (pH 4.6). Whole‐cell currents were recorded using a Multiclamp 700B amplifier (Molecular Devices) with low‐pass filtering at 3 kHz. The currents were digitized at a sampling frequency of 10 kHz using BNC-2110 and PCI-6221 with NI-DAQmx (National Instruments) and stored directly to a hard drive. Current recording was done with WinWCP5.2.7 (University of Strathclyde, UK) software, and analysis was done with the help of a customized Igor pro program (WaveMetrics).

hTRPML2 = target: T3, hTRPML2 (Homo sapiens, UniProt Q8IZK6); assay: Whole-cell patch-clamp, tetracycline-inducible HEK293 hTRPML2; conditions: 30 µM ML-SA1, pH 7.4; read-out: TRPML2 IC50, whole-cell patch-clamp
T3 construct: host or cells: HEK293, FLP-in-Tet-On, tetracycline-induced
T3 sequence (Q8IZK6 1-566): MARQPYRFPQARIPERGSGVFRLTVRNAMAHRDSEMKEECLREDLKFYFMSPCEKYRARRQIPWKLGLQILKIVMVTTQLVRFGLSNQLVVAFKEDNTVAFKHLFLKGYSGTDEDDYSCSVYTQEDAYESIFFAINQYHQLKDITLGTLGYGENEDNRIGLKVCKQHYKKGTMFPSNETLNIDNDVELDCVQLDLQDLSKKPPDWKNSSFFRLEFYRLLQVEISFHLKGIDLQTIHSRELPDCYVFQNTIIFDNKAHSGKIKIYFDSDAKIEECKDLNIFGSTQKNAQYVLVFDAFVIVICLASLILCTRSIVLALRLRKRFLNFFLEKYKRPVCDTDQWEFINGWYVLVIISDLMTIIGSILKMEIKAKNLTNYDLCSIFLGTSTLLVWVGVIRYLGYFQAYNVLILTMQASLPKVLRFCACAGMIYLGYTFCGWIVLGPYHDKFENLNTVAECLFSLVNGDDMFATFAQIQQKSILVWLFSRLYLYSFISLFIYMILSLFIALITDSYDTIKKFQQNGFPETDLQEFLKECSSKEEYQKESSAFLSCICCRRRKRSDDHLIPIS
Experimental: Experiments were performed as described previously[20],[42]. In brief, cells were cultured on coverslips (Fisherbrand, Fisher Scientific) in complete DMEM medium with 10% FBS (Thermo Fisher). HEK293 cells expressing the desired channel protein were patch-clamped after overnight induction with tetracycline (1 µg/mL). […] The low pH bath solution contained (mM) 150 Na-Gluconate, 5 KCl, 2 CaCl2, 1 MgCl2, 10 glucose, 10 HEPES and 10 MES (pH 4.6). Whole‐cell currents were recorded using a Multiclamp 700B amplifier (Molecular Devices) with low‐pass filtering at 3 kHz. […] Current recording was done with WinWCP5.2.7 (University of Strathclyde, UK) software, and analysis was done with the help of a customized Igor pro program (WaveMetrics).

Q: `COc1ccc2c(c1)CC[C@@H]1[C@@H]2CC[C@]2(C)[C@@H](O)CC[C@@H]12` [EDME, 17β-estradiol methyl ether] was tested. Which “inhibition of endogenous TRPML1 in alveolar macrophages” value (TRPML1) did it give?
A: Its value is “inhibition of TRPML1 activation”.

Q: And the IC50 [1]?
A: Its IC50 is 220 nM.

Q: What about the IC50 (hTRPML2) of the same compound?
A: Its IC50 is 3800 nM.
